target: T1, Sterol O-acyltransferase 1 (Rattus norvegicus, UniProt O70536); experiment: ChEBML_28484
T1 sequence (O70536 whole entry): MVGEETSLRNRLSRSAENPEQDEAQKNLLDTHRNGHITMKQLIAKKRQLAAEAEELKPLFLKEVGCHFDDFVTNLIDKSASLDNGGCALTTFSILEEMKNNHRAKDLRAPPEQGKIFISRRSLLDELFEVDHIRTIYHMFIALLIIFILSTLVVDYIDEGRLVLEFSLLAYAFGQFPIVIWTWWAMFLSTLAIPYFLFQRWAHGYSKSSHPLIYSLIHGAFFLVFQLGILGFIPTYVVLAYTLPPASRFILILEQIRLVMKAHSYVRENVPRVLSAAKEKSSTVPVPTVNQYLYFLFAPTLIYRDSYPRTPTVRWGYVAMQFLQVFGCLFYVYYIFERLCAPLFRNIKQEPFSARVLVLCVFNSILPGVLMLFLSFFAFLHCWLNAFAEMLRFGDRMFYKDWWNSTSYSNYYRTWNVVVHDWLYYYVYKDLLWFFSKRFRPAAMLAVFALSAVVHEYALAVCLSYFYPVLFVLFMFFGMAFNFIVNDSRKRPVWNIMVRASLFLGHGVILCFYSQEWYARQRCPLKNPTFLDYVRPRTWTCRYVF
Procedure: (§1) Concentration required for the in vitro inhibition of Acyl coenzyme A:cholesterol acyltransferase (ACAT) in liver microsomes isolated from cholesterol-fed rats was determined

| Structure (SMILES) | IC50 [µM] |
| --- | --- |
| CCCCCCCCCCCCn1nnc(C(C(=O)Nc2c(C(C)C)cccc2C(C)C)c2ccccc2)n1 (configuration not stated) [N-(2,6-Diisopropyl-phenyl)-2-(2-dodecyl-2H-tetrazol-5-yl)-2-phenyl-acetamide] | 0.01 |
| CCCCCCCC[C@H](SCCCCCC)C(=O)Nc1c(SC)cc[n+](C)c1SC | 0.16 |
| CCCCCCCCCCCCn1nnnc1C(C(=O)Nc1c(C(C)C)cccc1C(C)C)c1ccccc1 (configuration not stated) | 0.079 |

The remaining molecules from weak to strong by IC50, led by results:

| IC50 [µM] | Structure (SMILES) |
| --- | --- |
| 0.052 | CCCCCCCCCCCCn1nnnc1C(C(=O)Nc1c(OC)cc(OC)cc1OC)c1ccccc1 (configuration not stated) |
| 0.022 | CCCCCCCC[C@@H](SCCCCCC)C(=O)Nc1c(SC)cc[n+](C)c1SC |
| 0.014 | CCCCCCCCCCCCn1nnc(C(C(=O)Nc2c(OC)cc(OC)cc2OC)c2ccccc2)n1 (configuration not stated) [2-(2-Dodecyl-2H-tetrazol-5-yl)-2-phenyl-N-(2,4,6-trimethoxy-phenyl)-acetamide] |

target: T1, Sterol O-acyltransferase 1; experiment: as §1

| IC50 [µM] | Structure (SMILES) |
| --- | --- |
| 0.024 | CCCCCCCCCCCCn1nnc(C(C(=O)Nc2c(OC)cc(OC)cc2OC)c2ccccc2)n1 (configuration not stated) [2-(2-Dodecyl-2H-tetrazol-5-yl)-2-phenyl-N-(2,4,6-trimethoxy-phenyl)-acetamide] |

Reference: BindingDB's records for doi:10.7270/Q29Z94WS (Warner-Lambert, 1995)
